Legend:
U-251 [1] = experiment: Antiproliferative activity against human U-251 cells assessed as inhibition of cell growth at 10 uM incubated for 48 hrs by SRB assay relative to control; assay type: functional; parameters: scale not given: the % may be the effect or the level left
PC-3 = experiment: Antiproliferative activity against human PC-3 cells assessed as inhibition of cell growth at 10 uM incubated for 48 hrs by SRB assay relative to control; assay type: functional; parameters: scale not given: the % may be the effect or the level left
K562 [2] = experiment: Antiproliferative activity against human K562 cells assessed as inhibition of cell growth at 10 uM incubated for 48 hrs by SRB assay relative to control; assay type: functional; parameters: scale not given: the % may be the effect or the level left
HCT-15 = experiment: Antiproliferative activity against human HCT-15 cells assessed as inhibition of cell growth at 10 uM incubated for 48 hrs by SRB assay relative to control; assay type: functional; parameters: scale not given: the % may be the effect or the level left
MCF7 = experiment: Antiproliferative activity against human MCF7 cells assessed as inhibition of cell growth at 10 uM incubated for 48 hrs by SRB assay relative to control; assay type: functional; parameters: scale not given: the % may be the effect or the level left
SK-LU-1 [3] = experiment: Antiproliferative activity against human SK-LU-1 cells assessed as inhibition of cell growth at 10 uM incubated for 48 hrs by SRB assay relative to control; assay type: functional; parameters: scale not given: the % may be the effect or the level left
[4] = Antiproliferative activity against African green monkey COS-7 cells assessed as inhibition of cell growth at 10 uM incubated for 48 hrs by SRB assay relative to control; assay type: toxicity, cell-based; settings: chlorocebus aethiops, read-out: Activity
U-251 [5] = experiment: Antiproliferative activity against human U-251 cells assessed as inhibition of cell growth incubated for 48 hrs by SRB assay; assay type: functional, cell-based; settings: U-251, 48 h
K562 [6] = experiment: Antiproliferative activity against human K562 cells assessed as inhibition of cell growth incubated for 48 hrs by SRB assay; assay type: functional, cell-based; settings: K562, 48 h
SK-LU-1 [7] = experiment: Antiproliferative activity against human SK-LU-1 cells assessed as inhibition of cell growth incubated for 48 hrs by SRB assay; assay type: functional, cell-based; settings: SK-LU-1, 48 h

| SMILES | Activity (U-251 [1]) | Activity (PC-3) | Activity (K562 [2]) | Activity (HCT-15) | Activity (MCF7) | Activity (SK-LU-1 [3]) | inhibition at 48 h, 10 µM [4] | IC50 (U-251 [5]) | IC50 (K562 [6]) | IC50 (SK-LU-1 [7]) |
| --- | --- | --- | --- | --- | --- | --- | --- | --- | --- | --- |
| CCCCCCCCCCCCNC(=O)C(c1ccc(O)cc1OC)N1CCCCN(CC(=O)NC(C)(C)C)C(=O)c2cccc(c2)-c2cccc(c2)C1=O (racemic) | 48.5% | 37.6% | 60.9% | 27.3% | 38.9% | 45.1% | 26.1% | – | – | – |
| CCCCCCCCCNC(=O)CN1CCCCN(CC(=O)NC(C)(C)C)C(=O)c2cccc(c2)-c2cccc(c2)C1=O | 16% | 66.9% | 44% | 55.1% | 45.6% | 45.3% | 52.4% | – | – | – |
| CCCCCCCCCCCCNC(=O)C(c1ccc(OC)cc1)N1CCCCN(CC(=O)NC(C)(C)C)C(=O)c2cccc(c2)-c2cccc(c2)C1=O (racemic) | 50.1% | 46.2% | 56.1% | 22% | 23.6% | 37.8% | 33% | – | – | – |
| CCCCCCCCCCCCNC(=O)CN1CCCCN(CC(=O)NC(C)(C)C)C(=O)c2cccc(c2)-c2cccc(c2)C1=O | – | – | – | – | – | – | – | 5.9 µM | 4 µM | 7.6 µM |
| CCCCCCCCNC(=O)CN1CCCCN(CC(=O)NC(C)(C)C)C(=O)c2cccc(c2)-c2cccc(c2)C1=O | 20.5% | 46.5% | 24.4% | 26.7% | 31.7% | 9.6% | 19.7% | – | – | – |
| CCCCCCCNC(=O)CN1CCCCN(CC(=O)NC(C)(C)C)C(=O)c2cccc(c2)-c2cccc(c2)C1=O | 99.2% | 97.2% | 79.3% | 77.9% | 70.9% | 88.6% | 7.6% | – | 8.2 µM | 4.7 µM |
| CCCCCCNC(=O)CN1CCCCN(CC(=O)NC(C)(C)C)C(=O)c2cccc(c2)-c2cccc(c2)C1=O | 58.5% | 19.3% | 60.1% | 32.4% | – | 74.9% | 40% | – | – | – |
| COc1cc([C@@H]2c3cc4c(cc3[C@@H](O[C@@H]3O[C@@H]5CO[C@@H](C)O[C@H]5[C@H](O)[C@H]3O)[C@H]3COC(=O)[C@H]23)OCO4)cc(OC)c1O [ETOPOSIDE] | – | – | – | – | – | – | – | – | 11.3 µM | – |
| CCCCCCCCCCCCNC(=O)C(c1cc(C)ccc1F)N1CCCCN(CC(=O)NC(C)(C)C)C(=O)c2cccc(c2)-c2cccc(c2)C1=O (racemic) | 15.7% | 9.5% | 29% | 31.7% | 15.2% | 3.1% | 20.2% | – | – | – |
| CCCCCCCCCCCCNC(=O)C(c1ccc(SC)cc1)N1CCCCN(CC(=O)NC(C)(C)C)C(=O)c2cccc(c2)-c2cccc(c2)C1=O (racemic) | 20% | 28.5% | 34.9% | 18.3% | 45% | 45.6% | 35.5% | – | – | – |
| CCCCCCCCCCNC(=O)C(c1ccco1)N1CCCCN(CC(=O)NC(C)(C)C)C(=O)c2cccc(c2)-c2cccc(c2)C1=O (racemic) | 25.5% | 25.8% | 28% | 26% | 25.7% | 25.3% | 21.6% | – | – | – |
| CCCCCCCCCCCCNC(=O)C(c1ccc(F)cc1)N1CCCCN(CC(=O)NC(C)(C)C)C(=O)c2cccc(c2)-c2cccc(c2)C1=O (racemic) | 76.9% | 21.3% | 59.6% | 42.9% | 41.5% | 18.8% | 40.8% | – | – | – |
| CCCCCCCCCCCCNC(=O)C(c1ccccc1)N1CCCCN(CC(=O)NC(C)(C)C)C(=O)c2cccc(c2)-c2cccc(c2)C1=O (racemic) | – | 32.6% | 41.3% | 27.7% | 29.5% | 28.5% | 21.1% | – | – | – |
| CCCCCCCCCCCCNC(=O)C(c1ccco1)N1CCCCN(CC(=O)NC(C)(C)C)C(=O)c2cccc(c2)-c2cccc(c2)C1=O (racemic) | 21.9% | 13.5% | 19.8% | 26.8% | 51.3% | 34.9% | 35.8% | – | – | – |
| CCCCCCCCCCCCNC(=O)C(c1ccc(Cl)cc1)N1CCCCN(CC(=O)NC(C)(C)C)C(=O)c2cccc(c2)-c2cccc(c2)C1=O (racemic) | 71.3% | 14.4% | 42.6% | 24.3% | 72.2% | 52.3% | 42.2% | – | – | – |
| CCCCCCCCCCCCNC(=O)C(c1ccc(OC)cc1C)N1CCCCN(CC(=O)NC(C)(C)C)C(=O)c2cccc(c2)-c2cccc(c2)C1=O (racemic) | 23.1% | – | 5.2% | 28% | – | 29% | 31.3% | – | – | – |
| CCCCCCCCCCNC(=O)C(c1ccoc1)N1CCCCN(CC(=O)NC(C)(C)C)C(=O)c2cccc(c2)-c2cccc(c2)C1=O (racemic) | 27.5% | 35% | 36.6% | 38.5% | 29.5% | 18.8% | 22.8% | – | – | – |
| CCCCCCCCCCCCNC(=O)C(c1cc(OC)c(OC)c(OC)c1)N1CCCCN(CC(=O)NC(C)(C)C)C(=O)c2cccc(c2)-c2cccc(c2)C1=O (racemic) | 11.4% | 33.9% | 24% | 31.5% | – | 34.4% | 25.6% | – | – | – |
| CCCCCCCCCCCCNC(=O)C(c1ccc(C)cc1)N1CCCCN(CC(=O)NC(C)(C)C)C(=O)c2cccc(c2)-c2cccc(c2)C1=O (racemic) | 48% | 21.1% | 40.7% | 19.9% | 4.8% | 32.4% | 34.8% | – | – | – |
| CCCCCCCCCCCCNC(=O)C(c1ccc(C(F)(F)F)cc1)N1CCCCN(CC(=O)NC(C)(C)C)C(=O)c2cccc(c2)-c2cccc(c2)C1=O (racemic) | 47.2% | 18.6% | 100% | 30.3% | 75.3% | 76.5% | 38% | – | – | – |
| CCCCCCCCCCNC(=O)CN1CCCCN(CC(=O)NC(C)(C)C)C(=O)c2cccc(c2)-c2cccc(c2)C1=O | 16.1% | 59.9% | 38% | 65.5% | 72.1% | 50.4% | 17.8% | – | – | – |
| CCCCCCCCCCNC(=O)C(c1ccc(F)cc1)N1CCCCN(CC(=O)NC(C)(C)C)C(=O)c2cccc(c2)-c2cccc(c2)C1=O (racemic) | 19.3% | 15.1% | 64% | 67.2% | 47.3% | 31.8% | 24.3% | – | – | – |
| CCCCCCCCCCCNC(=O)CN1CCCCN(CC(=O)NC(C)(C)C)C(=O)c2cccc(c2)-c2cccc(c2)C1=O | 10.8% | 44.4% | 42% | 51% | 5.3% | 23.2% | 28.1% | – | – | – |
| CCCCCCCCCCNC(=O)CN1CCCCN(CC(=O)NC(C)(C)C)C(=O)c2cccc(c2)-c2ccc(O)c(c2)C1=O | 49.3% | 19.5% | 55.3% | 28.6% | 27.1% | 27.7% | 41.8% | – | – | – |
| CCCCCCCCCCCCNC(=O)C(c1ccoc1)N1CCCCN(CC(=O)NC(C)(C)C)C(=O)c2cccc(c2)-c2cccc(c2)C1=O (racemic) | 27.5% | 48.9% | 48.8% | 34.3% | 66.1% | 32.3% | 27.5% | – | – | – |
| CCCCCCCCCCCCNC(=O)C(c1ccc([N+](=O)[O-])cc1)N1CCCCN(CC(=O)NC(C)(C)C)C(=O)c2cccc(c2)-c2cccc(c2)C1=O (racemic) | 34.5% | 17.1% | 29% | 22.8% | 31.2% | 45.2% | 17.5% | – | – | – |
